Test results published in patent publication US8642834B2, “Methods for the identification of agents that inhibit mesenchymal-like tumor cells or their formation” (OSI Pharmaceuticals, LLC, priority 2009, dated 2014).
No end group written: not given here.

Tests used:
[1] = system: CFPAC-1 cells; test: Induction of EMT by growth factors and cytokines, E-cadherin and vimentin immunoblotting; type: cell-based, human; details: CFPAC-1 cells treated 7 days with ligand
Experimental: The CFPAC1 cell line was cultured in DMEM media (Gibco #11960) supplemented with 10% FBS (Sigma), 2 mM L Glutamine (Gibco), at 37° C., 5% CO2. For 7 day treatments, cells were seeded on tissue culture plastic in complete growth media and allowed to attach overnight at cell densities that would provide approximately 60-80% confluence at end of experiment. Ligand and/or inhibitor was added the following day (Day 0) in complete growth media and incubated at 37° C., 5% CO2. Ligand source and concentrations used are as follows: [1] From R&D systems, SDF-1α (stromal derived factor-1 alpha) at 100 ng/ml, TRANCE (TNF-related activation induced cytokine) at 50 ng/ml, FGF1 (fibroblast growth factor acidic) at 10 ng/ml, FGF2 (fibroblast growth factor basic) at 10 ng/ml, BMP4 (bone morphogenetic protein 4) at 100 ng/ml, BMP7 (bone morphogenetic protein 7) at 100 ng/ml, IGF2 (insulin-like growth factor 2) at 100 ng/ml, OSM (Oncostatin M) at 100 ng/ml, NRG1 (Neuregulin-1) at 50 ng/ml, PDGFaa (Platelet derived growth factor a) at 50 ng/ml, PDGFbb (platelet derive growth factor b) at 30 ng/ml, Ang2 (Angiopoeitin 2) at 400 ng/ml, amphiregulin at 100 ng/ml, HMGB 1 (Human high-mobility group box 1 protein) at 50 ng/ml; [2] From Genscript, LIF (Leukemia inhibitory factor) at 20 ng/ml, GM-CSF (Granulocyte macrophage colony stimulating factor) at 25 ng/ml, M-CSF (Macrophage colony stimulating factor) at 50 ng/ml; [3] From Anaspec, PAR1 (Protease activated receptor 1 agonist) at 100 μM; PAR2 (Protease activated receptor 2 agonist; peptide SLIGKV-NH2, Cat. No. 60217-1) at 100 μM; PAR4 (Protease activated receptor […] agonist; peptide AYPGKF-NH2, Cat. No. 60218-1) at 100 μM; [4] From Peprotech, HGF (Hepatocyte Growth Factor) at 100 ng/ml; IL-31 (Interleukin-31) at 50 ng/ml, IL-33 (Interleukin-33) at 50 ng/ml, IL1-a (Interleukin-1 alpha) at 10 ng/ml, CTGF (Connective tissue growth factor) at 20 ng/ml, WISP1 (Wnt-1 inducible signaling pathway protein) at 20 ng/ml, PTHrP ([…] hormone-related protein) at 50 ng/ml, MCP1 (monocyte chemotactic protein-1) at 50 ng/ml; and [5] from Sigma, Fulvestrant at 1 μM. Fresh medium containing ligand and/or inhibitor was added 3-4 days after initial dose, and at Day 7 cells were harvested for western blot analysis.
Cells were harvested by washing once with PBS, and lysing on ice for 10 minutes with scraping (using a Cell Lifter, Corning Inc. #3008) in ice cold RIPA buffer (Sigma R0278) containing Protease inhibitor (Sigma P8340), Phosphatase inhibitors (Sigma P2850, P5726) and 200 μM Sodium Vanadate. Supernatents were micro-centrifuged at max speed, 4° C. for 10 minutes. Protein content was quantitated using the BCA method (Pierce #23225) and samples were normalized to total protein in Laemli buffer and heated at 100° C. for 10 minutes. SDS PAGE was run using a Bis-Tris gel system (Invitrogen NuPAGE) with MOPS buffer (Invitrogen NP0001), transferred onto nitrocellulose using the iBLOT system (Invitrogen) and blocked in PBS-T (0.1% Tween 20), 5% non-fat milk or BSA in guidance with primary Ab supplier requirements. All primary antibodies were incubated overnight at 4° C. in PBS-T (0.1% Tween 20) in either 5% non-fat milk or BSA, diluted to the following working dilutions: anti E Cadherin (Santa Cruz #sc-21791) 1:500 dilution; anti Vimentin (BD Biosciences #550513) 1:2000 dilution;); anti GAPDH HRP conjugate (Santa Cruz sc-25778) 1:1000 dilution; anti β-Actin (Sigma, A5441) 1:10,000 dilution. […]

[2] = system: CFPAC-1 cells; test: Inhibition of ligand-induced EMT by JAK or MEK inhibitor; type: cell-based, human; details: JAK inhibitor 0.25 μM
Experimental: Supernatents were micro-centrifuged at max speed, 4° C. for 10 minutes. […] SDS PAGE was run using a Bis-Tris gel system (Invitrogen NuPAGE) with MOPS buffer (Invitrogen NP0001), transferred onto nitrocellulose using the iBLOT system (Invitrogen) and blocked in PBS-T (0.1% Tween 20), 5% non-fat milk or BSA in guidance with primary Ab supplier requirements. […] Secondary HRP labeled antibodies used were: anti Rabbit IgG HRP (Amersham NA934) 1:5000 dilution; anti Mouse IgG HRP (Sigma A2304) 1:2000 dilution. Membranes were visualized using the Supersignal ELISA Femto Maximum Sensitivity Substrate (Pierce).

[3] = system: pancreatic cancer; details: phase III, first-line, in combination with gemcitabine; cited from earlier work
[4] = system: advanced, treatment-refractory NSCLC; details: phase III, monotherapy, patients with advanced; cited from earlier work

| Compound | Induction of EMT (E-cadherin down, vimentin up) [1] | further results |
| --- | --- | --- |
| AYPGKF-NH2 [PAR4 agonist AYPGKF-NH2, reference compound] | Partial EMT |  |
| SLIGKV-NH2 (UniProt P55085 37-42, looked up, fragment) [PAR2 agonist SLIGKV-NH2, reference compound] | Partial EMT |  |
| IGF2: insulin-like growth factor 2, R&D systems, 100 ng/ml | Partial EMT |  |
| CC(C)(C)c1nc2c3cc[nH]c(=O)c3c3cc(F)ccc3c2[nH]1 [JAK inhibitor] |  | Block of morphology change ([2]; CFPAC-1 cells treated with OSM 7 days, light microscopy): blocked the morphology change; Block of EMT process ([2]; OSM-triggered EMT, 7 days, MEK inhibitor 3 μM): could block EMT process |
| LIF: Leukemia inhibitory factor, Genscript, 20 ng/ml | Partial EMT |  |
| C#Cc1cccc(Nc2ncnc3cc(OCCOC)c(OCCOC)cc23)c1 [erlotinib, [6,7-bis(2-methoxyethoxy)-4-quinazolin-4-yl]-(3-ethynylphenyl) amine] |  | Survival [3]: improves survival; Survival, disease progression, lung cancer-related symptoms [4]: significantly prolonged survival, delayed disease progression and delayed worsening of lung cancer-related symptoms |
